Experimental data from publication PMC6824041, “gem-Difluorobisarylic derivatives: design, synthesis and anti-inflammatory effect” (BMC Chemistry, 2019).

Molecular target: T1, cyclooxygenase-1 (COX-1) (Homo sapiens, UniProt P23219)
T1 construct: gene PTGS1; human recombinant COX-1 stably overexpressed in HEK-293 cells
Test: PGE2 production from added arachidonic acid in HEK-293 cells overexpressing human COX-1
Type: cell-based

T1 sequence (P23219 24-599): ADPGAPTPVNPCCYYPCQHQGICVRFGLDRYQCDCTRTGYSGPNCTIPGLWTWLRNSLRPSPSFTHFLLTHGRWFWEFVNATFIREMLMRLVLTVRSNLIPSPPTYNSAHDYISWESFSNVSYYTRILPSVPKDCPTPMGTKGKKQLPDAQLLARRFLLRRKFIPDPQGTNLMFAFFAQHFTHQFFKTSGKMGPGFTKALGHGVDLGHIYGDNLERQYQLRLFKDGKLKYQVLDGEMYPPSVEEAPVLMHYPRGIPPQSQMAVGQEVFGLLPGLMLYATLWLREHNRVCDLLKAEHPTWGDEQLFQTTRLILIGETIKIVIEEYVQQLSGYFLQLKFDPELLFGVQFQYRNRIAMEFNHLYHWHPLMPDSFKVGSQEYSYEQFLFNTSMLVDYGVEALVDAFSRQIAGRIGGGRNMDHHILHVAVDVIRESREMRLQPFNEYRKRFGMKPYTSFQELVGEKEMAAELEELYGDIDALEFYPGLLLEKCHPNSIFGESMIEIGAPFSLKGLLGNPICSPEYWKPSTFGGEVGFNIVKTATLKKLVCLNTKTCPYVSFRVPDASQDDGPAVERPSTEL

IC50: 5.2 µM
Compound: Cc1cc(C(=O)O)c(C(F)(F)c2cccc(C(C)C)c2)cc1C [A5, 2-(difluoro(3-isopropylphenyl)methyl)-4,5-dimethylbenzoic acid]
